Results on 7 compounds are retold here after publication PMC9332802, “Structure–Activity Relationship of New Chimeric Analogs of Mastoparan from the Wasp Venom Paravespula lewisii” (International Journal of Molecular Sciences, 2022).

Converted amounts (≈) assume the structure as drawn. “And” between values parts separate entries of the source, which are not always exact repeats. Equal values may be shown once. Ends that are not written are not given here. Some results are limits rather than exact numbers.

Series [1] has as its system Escherichia coli NCTC 8196. Nature of the series: microbe, parasite or virus in culture. In kind it is cell-based. Conditions: broth microdilution (CLSI), Mueller–Hinton broth, 37 °C, peptide 0.125 to […], no visible growth, triplicate. As to the method:
(§1) Antimicrobial activity of peptides was examined against three reference strains: Staphylococcus aureus NCTC 4163, Escherichia coli NCTC 8196 and Pseudomonas aeruginosae NCTC 6749 dedicated for the determination of antibacterial activity. The bacterial strains were stored in glycerol stock (Sigma-Aldrich, St. Louis, MO, USA) at −80 °C. Before testing, the strains were cultured aerobically in Tryptic Soy Agar (BD DIFCO, Franklin Lakes, NJ, USA) at 37 °C for 20 h. The susceptibility of microorganisms to the peptides was determined by the broth microdilution assay according to the procedures outlined by CLSI [49]. […] In order to prepare the bacterial suspension, an overnight culture of bacteria in Tryptic Soy Broth (BD DIFCO, Franklin Lakes, NJ, USA) was diluted in sterile saline to a final concentration of approximately 10^7 CFU/mL of bacteria. Aliquots (5 µL) of bacterial suspension were added to each peptide solution. The sterility control (containing the tested peptide in broth) and the growth control (containing the reference strain in broth without the tested peptide) were also set up. The plates were incubated at 37 °C under aerobic conditions. The results are expressed as the minimal inhibitory concentration (MIC) of the compounds in question. The MIC was defined as the lowest concentration at which no visible growth of bacteria (no turbidity) was observed. The assay was performed in triplicate.
In general terms: In broth dilution the organism is exposed to a series of concentrations in liquid medium.

For series [2], the system named is Pseudomonas aeruginosae NCTC 6749. Nature of the series: microbe, parasite or virus in culture. The format is cell-based. Conditions: broth microdilution (CLSI), Mueller–Hinton broth, 37 °C, peptide 0.125 to […], no visible growth, triplicate. The method, then:
as §1

Series [3] concerns Staphylococcus aureus NCTC 4163. Nature of the series: microbe, parasite or virus in culture. The format is cell-based. Conditions: broth microdilution (CLSI), Mueller–Hinton broth, 37 °C, peptide 0.125 to […], no visible growth, triplicate. The method, then: as §1
Series [4] can be described thus: Circular dichroism spectroscopy, relative α-helix fraction. The format is physicochemical. Conditions: CD, peptide 0.15 mg/mL, 25 °C, three scans averaged; for Relative α-helix fraction (fH), 0.1 M Tris + 50 mM SDS: 0.1 M Tris buffer pH 7.01 + 50 mM SDS, from mean residue ellipticity at 222 nm; for Relative α-helix fraction (fH), 50% TFE / Relative α-helix fraction (fH), water: from mean residue ellipticity at 222 nm (Rohl and Baldwin). The method, then:
Circular dichroism spectroscopy was applied to evaluate the conformational changes of peptides induced by membrane-mimetic environments. The secondary structures of MP and some of its MP analogs (Table 4) were determined in water, 50% 2,2,2-trifluoroethanol (TFE) and 0.1 M Tris buffer with the addition of 50 mM SDS. The relative α-helix fraction (fH) values presented in Table 4, calculated from the values of mean residue ellipticity at 222 nm, reflect the ability of peptides to adopt helical structure in the tested environments.
Circular dichroism (CD) spectra of peptides were recorded on a Jasco J-815 spectropolarimeter (Jasco Int. Co., Ltd., Tokyo, Japan). The CD spectra were acquired for peptides in a concentration of 0.15 mg/mL in water, 50% 2,2,2-trifluoroethanol (TFE) or 0.1 M tris(hydroxymethyl)aminomethane (Tris) buffer (pH 7.01) with the addition of 50 mM SDS (sodium dodecylsulphate) in 0.1 cm path length cuvettes. Measurements were taken at 25 °C in a spectral range of 193–260 nm with a bandwidth of 1 nm and response of 1 s. The spectra were averaged after three scans. Ellipticity was measured in mdeg units and converted to mean residue ellipticity (Θ). The relative helix content (fH) was calculated from the mean residue ellipticity values at 222 nm using the method proposed by Rohl and Baldwin [50] and described previously. Helical wheel projections (Figure 3) were made with HeliQuest https://heliquest.ipmc.cnrs.fr/ (accessed on 1 June 2022).
On the technique in general: Circular dichroism is widely used to follow secondary structure.

With `CC[C@H](C)[C@H](NC(=O)[C@H](CCCCN)NC(=O)CNC(=O)[C@H](CC(C)C)NC(=O)[C@H](CC(C)C)NC(=O)[C@H](Cc1ccc(O)cc1)NC(=O)CNC(=O)[C@H](C)N)C(=O)N[C@@H](CC(N)=O)C(=O)N[C@@H](CC(C)C)C(=O)N[C@@H](CCCCN)C(=O)N[C@@H](C)C(=O)N[C@@H](CC(C)C)C(=O)N[C@@H](C)C(=O)N[C@@H](C)C(=O)N[C@@H](CC(C)C)C(=O)N[C@@H](C)C(=O)N[C@@H](CCCCN)C(=O)N[C@@H](CCCCN)C(=O)N[C@H](C(=O)N[C@@H](CC(C)C)C(=O)N[C@@H](Cc1ccc(O)cc1)C(=O)N[C@@H](CO)C(=O)N1CCC[C@H]1C(=O)N[C@@H](Cc1c[nH]c2ccccc12)C(=O)N[C@H](C(=O)N[C@@H](CC(N)=O)C(=O)N[C@@H](Cc1ccccc1)C(N)=O)[C@@H](C)O)[C@@H](C)CC` [TP10-RIP], in series [1], the “MIC E. coli” value is greater than 256 µg/mL. Also, the “MIC P. aeruginosae” value in series [2] was greater than 256 µg/mL. In addition, in series [3], the “MIC S. aureus” value was found to be 128 µg/mL (≈ 41.6 µM). In series [4], the “Relative α-helix fraction (fH), 0.1 M Tris + 50 mM SDS” value is 0.25; the “Relative α-helix fraction (fH), 50% TFE” value was 0.27; the “Relative α-helix fraction (fH), water” value is listed as 0.08.

Take `CC[C@H](C)[C@H](NC(=O)[C@H](CCCCN)NC(=O)CNC(=O)[C@H](CC(C)C)NC(=O)[C@H](CC(C)C)NC(=O)[C@H](Cc1ccc(O)cc1)NC(=O)CNC(=O)[C@H](C)N)C(=O)N[C@@H](CC(N)=O)C(=O)N[C@@H](CC(C)C)C(=O)N[C@@H](CCCCN)C(=O)N[C@@H](C)C(=O)N[C@@H](CC(C)C)C(=O)N[C@@H](C)C(=O)N[C@@H](C)C(=O)N[C@@H](CC(C)C)C(=O)N[C@@H](C)C(=O)N[C@@H](CCCCN)C(=O)N[C@@H](CCCCN)C(=O)N[C@H](C(=O)N[C@@H](CC(C)C)C(=O)N[C@@H](Cc1ccc(O)cc1)C(=O)N[C@@H](CCCCN)C(=O)N1CCC[C@H]1C(=O)N[C@H](C(=O)N[C@H](C(=O)N[C@@H](CC(N)=O)C(=O)N[C@@H](Cc1ccccc1)C(N)=O)[C@@H](C)O)[C@@H](C)CC)[C@@H](C)CC` [TP10-[Lys^2, Ile^4] RIP]: the “MIC E. coli” value in series [1] was greater than 256 µg/mL. In addition, the “MIC P. aeruginosae” value in series [2] is greater than 256 µg/mL. Also, the “MIC S. aureus” value in series [3] worked out at 128 µg/mL (≈ 42 µM). For the same compound, in series [4], the “Relative α-helix fraction (fH), 0.1 M Tris + 50 mM SDS” value was 0.31; the “Relative α-helix fraction (fH), 50% TFE” value is recorded as 0.29; the “Relative α-helix fraction (fH), water” value is 0.08.

On to `CC[C@H](C)[C@H](NC(=O)[C@H](CCCCN)NC(=O)[C@H](CCCCN)NC(=O)[C@H](C)NC(=O)[C@H](CC(C)C)NC(=O)[C@H](C)NC(=O)[C@H](C)NC(=O)[C@H](CC(C)C)NC(=O)[C@H](C)NC(=O)[C@H](CCCCN)NC(=O)[C@H](CC(C)C)NC(=O)[C@H](CC(N)=O)NC(=O)[C@@H](NC(=O)[C@H](CCCCNC(=O)Cn1cnc2ccccc21)NC(=O)CNC(=O)[C@H](CC(C)C)NC(=O)[C@H](CC(C)C)NC(=O)[C@H](Cc1ccc(O)cc1)NC(=O)CNC(=O)[C@H](C)N)[C@@H](C)CC)C(=O)N[C@@H](CC(C)C)C(N)=O` [[Lys^7 (BnzAc)] TP10], for which the “MIC E. coli” value in series [1] is greater than 256 µg/mL. In addition, in series [2], the “MIC P. aeruginosae” value is greater than 256 µg/mL. The “MIC S. aureus” value in series [3] stood at 256 µg/mL (≈ 109 µM).

For the compound `CC[C@H](C)[C@H](NC(=O)[C@H](CCCCN)NC(=O)[C@H](CCCCN)NC(=O)[C@H](C)NC(=O)[C@H](CC(C)C)NC(=O)[C@H](C)NC(=O)[C@H](C)NC(=O)[C@H](CC(C)C)NC(=O)[C@H](C)NC(=O)[C@H](CCCCN)NC(=O)[C@H](CC(C)C)NC(=O)[C@H](CC(N)=O)NC(=O)[C@@H](NC(=O)[C@H](CCCCNC(=O)Cn1c(-c2ccccc2Cl)nc2ccccc21)NC(=O)CNC(=O)[C@H](CC(C)C)NC(=O)[C@H](CC(C)C)NC(=O)[C@H](Cc1ccc(O)cc1)NC(=O)CNC(=O)[C@H](C)N)[C@@H](C)CC)C(=O)N[C@@H](CC(C)C)C(N)=O` [[Lys^7 (ClBnzAc)] TP10], the “MIC E. coli” value in series [1] is greater than 256 µg/mL. Also, the “MIC P. aeruginosae” value in series [2] is greater than 256 µg/mL. Moreover, the “MIC S. aureus” value in series [3] is greater than 256 µg/mL.

On to `CCCCCCCCCc1nc2ccccc2n1CC(=O)NCCCC[C@H](NC(=O)CNC(=O)[C@H](CC(C)C)NC(=O)[C@H](CC(C)C)NC(=O)[C@H](Cc1ccc(O)cc1)NC(=O)CNC(=O)[C@H](C)N)C(=O)N[C@H](C(=O)N[C@@H](CC(N)=O)C(=O)N[C@@H](CC(C)C)C(=O)N[C@@H](CCCCN)C(=O)N[C@@H](C)C(=O)N[C@@H](CC(C)C)C(=O)N[C@@H](C)C(=O)N[C@@H](C)C(=O)N[C@@H](CC(C)C)C(=O)N[C@@H](C)C(=O)N[C@@H](CCCCN)C(=O)N[C@@H](CCCCN)C(=O)N[C@H](C(=O)N[C@@H](CC(C)C)C(N)=O)[C@@H](C)CC)[C@@H](C)CC` [[Lys^7 (NBnzAc)] TP10], for which the “MIC E. coli” value in series [1] was greater than 256 µg/mL. Further, the “MIC P. aeruginosae” value in series [2] was greater than 256 µg/mL. Moreover, the “MIC S. aureus” value in series [3] was greater than 256 µg/mL.

Turning to `CC[C@H](C)[C@H](NC(=O)[C@H](CCCCN)NC(=O)[C@H](CCCCN)NC(=O)[C@H](C)NC(=O)[C@H](CC(C)C)NC(=O)[C@H](C)NC(=O)[C@H](C)NC(=O)[C@H](CC(C)C)NC(=O)[C@H](C)NC(=O)[C@H](CCCCN)NC(=O)[C@H](CC(C)C)NC(=O)[C@H](CC(N)=O)NC(=O)[C@@H](NC(=O)[C@H](CCCCNC(=O)Cn1c(-c2ccccn2)nc2ccccc21)NC(=O)CNC(=O)[C@H](CC(C)C)NC(=O)[C@H](CC(C)C)NC(=O)[C@H](Cc1ccc(O)cc1)NC(=O)CNC(=O)[C@H](C)N)[C@@H](C)CC)C(=O)N[C@@H](CC(C)C)C(N)=O` [[Lys^7 (PBnzAc)] TP10], the “MIC E. coli” value in series [1] was greater than 256 µg/mL. For the same compound, in series [2], the “MIC P. aeruginosae” value is greater than 256 µg/mL. For the same compound, the “MIC S. aureus” value in series [3] was greater than 256 µg/mL. In series [4], the “Relative α-helix fraction (fH), 0.1 M Tris + 50 mM SDS” value was determined as 0.32; the “Relative α-helix fraction (fH), 50% TFE” value worked out at 0.51; the “Relative α-helix fraction (fH), water” value is 0.14–0.19 and 0.15.

Take “INLKALAALAKKILLIKKALAALAKLNI-NH2 [MP-retroMP]”: the “MIC E. coli” value in series [1] is greater than 256 µg/mL. The “MIC P. aeruginosae” value in series [2] was greater than 256 µg/mL. Further, the “MIC S. aureus” value in series [3] is greater than 256 µg/mL. In series [4], the “Relative α-helix fraction (fH), 0.1 M Tris + 50 mM SDS” value stood at 0.17; the “Relative α-helix fraction (fH), 50% TFE” value was 0.23–0.24 and 0.24; the “Relative α-helix fraction (fH), water” value came out at 0.04.
